Source: US20220362232A1, “TOPICAL COMPOSITIONS COMPRISING A MACROLIDE IMMUNOSUPPRESSANT” (BAUSCH HEALTH IRELAND LIMITED, priority 2020, published 2022)

Columns and labels:
[1] = cited from earlier work
[2] = Solubility and stability in alkyl diesters of aliphatic dicarboxylic acids; type: physicochemical

| Solubility and stability in alkyl diesters of aliphatic dicarboxylic acids [2] | SMILES | Solubility in methanol and ethanol ([1]; methanol and ethanol) | Solubility in water [1] | Solubility in benzyl alcohol, chloroform, acetone, and acetonitrile [1] |
| --- | --- | --- | --- | --- |
| particularly soluble and stable | CC[C@@H]1/C=C(\C)C[C@H](C)C[C@H](OC)[C@H]2O[C@@](O)(C(=O)C(=O)N3CCCC[C@H]3C(=O)O[C@H](/C(C)=C/[C@@H]3CC[C@H](Cl)[C@H](OC)C3)[C@H](C)[C@@H](O)CC1=O)[C@H](C)C[C@@H]2OC [Pimecrolimus] | soluble | insoluble | – |
| particularly soluble and stable | CO[C@H]1C[C@@H]2CC[C@@H](C)[C@@](O)(O2)C(=O)C(=O)N2CCCC[C@H]2C(=O)O[C@H]([C@H](C)C[C@@H]2CC[C@@H](O)[C@H](OC)C2)CC(=O)[C@H](C)/C=C(\C)[C@@H](O)[C@@H](OC)C(=O)[C@H](C)C[C@H](C)/C=C/C=C/C=C/1C [Sirolimus] | – | insoluble | soluble |
| particularly soluble and stable | C=CC[C@@H]1/C=C(\C)C[C@H](C)C[C@H](OC)[C@H]2O[C@@](O)(C(=O)C(=O)N3CCCC[C@H]3C(=O)O[C@H](/C(C)=C/[C@@H]3CC[C@@H](O)[C@H](OC)C3)[C@H](C)[C@@H](O)CC1=O)[C@H](C)C[C@@H]2OC [Tacrolimus] | – | insoluble | soluble |
